What was measured:
chick chondrocytes = test: Continuous 48 hr exposure of chick chondrocytes in culture; type: cell-based; conditions: for smurf2 expression: 48 hr chronic, continuous exposure, chick chondrocytes
Method: FIG. 3C is a histogram showing levels of Smurf2 mRNA relative to control in chick sternal chondrocytes cultured with TGFβ, BMP-2, PTHrP, or dibutyryl cyclic adenosine monophosphate (dbcAMP) following a chronic, 48 hour exposure.
The Western blots show pSmad3 and pSmad2 levels in chick sternal chondrocytes cultured in the presence or absence of TGFβ, PTHrP and/or a Smurf2 RNAi (Sf2 RNAi) for 48 hours.
Without meaning to be limited by theory, this may have been due to down-regulation of TGF-β signaling by smurf2, allowing BMP signals to drive hypertrophy.

articular cartilage = test: Immediate treatment after meniscus/ligament injury (osteoarthritis model); type: in vivo, mice; conditions: for proteoglycan in the articular cartilage (Alcian Blue staining intensity): daily injection for 4 weeks starting immediately after surgery; for cartilage loss (histomorphometric joint cartilage area): daily injection for 12 weeks starting immediately after surgery
Method: Treatment with teriparatide or PTH reduces the amount of cartilage loss as compared to treatment with saline. Mice exposed to sham surgery or meniscus/ligament injury, a model for osteoarthritis, were treated, starting immediately after surgery, with saline, teriparatide, or PTH for 4 weeks. […] Mice exposed to sham surgery or meniscus/ligament injury were treated, starting immediately after surgery, with saline, teriparatide, or PTH for 12 weeks.

[1] = system: white zone meniscal tears; test: Rabbit white zone meniscal tear, treatment after surgery; type: in vivo; conditions: treated for 4 weeks after surgery, versus saline
Method: FIGS. 12A and 12B show daily treatment with teriparatide for 4 weeks following meniscal surgery results in preliminary meniscal healing. […] Rabbits underwent surgery to produce white zone meniscal tears. The rabbits were treated with either saline (FIG. 12A) or teriparatide (FIG. 12B) after surgery for 4 weeks.

cartilage = test: Delayed treatment of osteoarthritic mice 8 weeks after joint surgery; type: in vivo; conditions: daily injections for 4 weeks after 8 week delay post surgery
Method: Delayed treatment with teriparatide or PTH reduces the amount of cartilage loss as compared to treatment with saline. Mice were allowed to develop osteoarthritis for 8 weeks following joint surgery, as described above. After 8 weeks, the mice were treated for 4 weeks with daily injections of teriparatide or PTH, a delayed treatment regimen.

[2] = system: articular cartilage in mice; test: Murine knee injury model (severe injury), daily injection, Alcian Blue histology; type: in vivo
Method: Mice were anesthetized and an arthrotomy of the knee was performed. The medial collateral ligament was surgically transected, and the anterior horn of the medial meniscus was surgically removed to create a mild knee injury. For the severe injury group, the anterior cruciate ligament was also transected, causing severe joint instability in combination with the mild meniscal and medial collateral ligament injuries. The knee was surgically closed and animals were allowed free movement subsequently. One group with the severe combined injuries, as the most difficult case for cartilage protection, was treated daily with injections of teriparatide. After sacrifice at appropriate time points, the knee joints were removed, decalcified, embedded in paraffin, and 4-micron thick sections were stained with Alcian Blue to produce photomicrographs as shown in FIG. 4.

Rabbit meniscal cells = test: Cultured rabbit meniscal cells, mRNA expression; type: cell-based
Method: Rabbit meniscal cells were isolated from rabbit menisci and cultured. Cultured meniscal cells were treated with PTH for 1 or 3 days.

Question: `CCCC(=O)Nc1ncnc2c1ncn2[C@@H]1O[C@@H]2COP(=O)(O)O[C@H]2[C@H]1OC(=O)CCC` [dbcAMP, dibutyryl cyclic adenosine monophosphate] was tested. Which smurf2 expression (chick chondrocytes) did it give?
Answer: The smurf2 expression was “stimulated smurf2 expression”.

Question: With `CC[C@H](C)[C@H](NC(=O)[C@H](CCC(=O)O)NC(=O)[C@H](CO)NC(=O)[C@@H](NC(=O)[C@@H](N)CO)C(C)C)C(=O)N[C@@H](CCC(N)=O)C(=O)N[C@@H](CC(C)C)C(=O)N[C@@H](CCSC)C(=O)N[C@@H](Cc1cnc[nH]1)C(=O)N[C@@H](CC(N)=O)C(=O)N[C@@H](CC(C)C)C(=O)NCC(=O)N[C@@H](CCCCN)C(=O)N[C@@H](Cc1cnc[nH]1)C(=O)N[C@@H](CC(C)C)C(=O)N[C@@H](CC(N)=O)C(=O)N[C@@H](CO)C(=O)N[C@@H](CCSC)C(=O)N[C@@H](CCC(=O)O)C(=O)N[C@@H](CCCN=C(N)N)C(=O)N[C@H](C(=O)N[C@@H](CCC(=O)O)C(=O)N[C@@H](Cc1c[nH]c2ccccc12)C(=O)N[C@@H](CC(C)C)C(=O)N[C@@H](CCCN=C(N)N)C(=O)N[C@@H](CCCCN)C(=O)N[C@@H](CCCCN)C(=O)N[C@@H](CC(C)C)C(=O)N[C@@H](CCC(N)=O)C(=O)N[C@@H](CC(=O)O)C(=O)N[C@H](C(=O)N[C@@H](Cc1cnc[nH]1)C(=O)N[C@@H](CC(N)=O)C(=O)N[C@@H](Cc1ccccc1)C(=O)O)C(C)C)C(C)C` [teriparatide] as the molecule, how does the “proteoglycan in the articular cartilage (Alcian Blue staining intensity)” value (articular cartilage) read?
Answer: The value was “upregulation of proteoglycan”.

Question: What about the “cartilage loss (histomorphometric joint cartilage area)” value (articular cartilage) of the same molecule?
Answer: The value was “reduction in cartilage loss”.

Question: And the “meniscal healing (defect, cellularity, proteoglycan content)” value [1]?
Answer: Its value is “narrowing of the defect with increased cellularlity and proteoglycan content”.

Question: And the “cartilage loss and regeneration versus saline control” value (cartilage)?
Answer: The value was “reduction in the loss of cartilage and regeneration of lost cartilage”.

Question: What about the “development of cartilage degeneration and osteoarthritis” value ([2]; severe injury (ACL and MCL transection plus medial menisectomy), 4, 8, 12 weeks) of the same molecule?
Answer: Its value is “dramatically retards the development of cartilage degeneration and osteoarthritis”.

Question: And the “cellular repair activities and hypertrophy or maturational changes” value ([2]; severe knee injury)?
Answer: The value was “stimulated cellular repair activities with suppression of hypertrophy or maturational changes”.

Question: What does the source list for “parathyroid hormone-related peptide [PTHrP]”?
Answer: smurf2 expression (chick chondrocytes): stimulated smurf2 expression; pSmad2 and pSmad3 levels (Western blot) (chick chondrocytes; chick sternal chondrocytes, 48 hours, reversed by Smurf2 siRNA): reduction of pSmad2 and pSmad3

B1: parathyroid hormone (protein, listed as Homo sapiens)
chain: MIPAKDMAKVMIVMLAICFLTKSDGKSVKKRSVSEIQLMHNLGKHLNSMERVEWLRKKLQDVHNFVALGAPLAPRDAGSQRPRKKEDNVLVESHEKSLGEADKADVNVLTKAKSQ
modifications: Parathyroid Hormone
notes: Parathyroid hormone, ligand of the PTH/PTHrP receptor (PTHR1)
Question: Which results are given for B1?
Answer: proteoglycan in the articular cartilage (Alcian Blue staining intensity) (articular cartilage): upregulation of proteoglycan; cartilage loss (histomorphometric joint cartilage area) (articular cartilage): reduction in cartilage loss; cyclin D1 mRNA (Rabbit meniscal cells; after 3 days of treatment): upregulation of mRNA for cyclin D1; type I collagen mRNA (Rabbit meniscal cells; treated for 1 or 3 days): upregulation of mRNA for type I collagen; cartilage loss and regeneration versus saline control (cartilage): reduction in the loss of cartilage and regeneration of lost cartilage
